Results: PMC10574351, “First-Row Transition Metal Complexes Incorporating the 2-(2′-pyridyl)quinoxaline Ligand (pqx), as Potent Inflammatory Mediators: Cytotoxic Properties and Biological Activities against the Platelet-Activating Factor (PAF) and Thrombin” (Molecules, 2023)

What was measured:
[1] = test system: HEK293T (human embryonic kidney cells); experiment: MTT cell viability assay, HEK293T; assay type: cell-based; details: for IC50: 48 h exposure, mean ± SD; for cytotoxic effect in HEK293T: 48 h
Method: (§1) In this report, cell viability tests were conducted in HEK293T and HeLa cancer cells by means of the colorimetric 3-(4,5-dimethylthiazol-2-yl)-2,5-diphenyl tetrazolium bromide (MTT) assay after exposure for 48 h. A HeLa cancer cell line was selected since it is widely used in cytotoxicity studies. For all complexes, a 10 mM stock solution in DMSO (H2O for cisplatin) was prepared and diluted appropriately to reach the final concentration reported in the Materials and Methods. The non-cancerous HEK293T cell line was used for comparison. The IC50 values of the first-row metal complexes, the pqx ligand and cisplatin, presented herein were calculated using a dose-response model, which was obtained from sigmoidal fitting of dose-response curves.
(§2) The HEK293T cell line (immortalized human embryonic kidney cells) was obtained from the Biomedical Research Foundation Academy of Athens (BRFAA), Athens, Greece and the HeLa cell line (cervical cancer cells) was obtained from the National Centre For Scientific Research Demokritos (NCSR Demokritos), Athens, Greece.
(§3) Pqx metal complexes were diluted in stock solutions of 10 mM in dimethyl sulfoxide (DMSO). A similar concentration of cisplatin dissolved in H2O was used. HEK293T and HeLa cells were cultured in Dulbecco’s modified Eagle’s medium (DMEM) with high glucose (Biosera, Nuaille, France) supplemented with 10% fetal bovine serum at 37 °C and 5% CO2. Cells were seeded in sterile tissue culture 96-well plates (SPL Life Science, Pochon, Republic of Korea) at a density of 3000 cells per well. After 24 h, the medium was removed and replaced with fresh media containing various concentrations (0.01 μΜ, 0.1 μΜ, 1 μΜ, 10 μΜ, 25 μΜ, 40 μΜ, 55 μΜ, 70 μΜ, 85 μΜ and 100 μΜ) of the compounds to be tested and was further incubated for 48 h at 37 °C. Dimethyl sulfoxide (DMSO) was used as a vehicle at ≤1%. To measure cytotoxicity, a culture medium containing the compounds (or DMSO) was removed, and 100 μL of 0.5 mg/mL MTT reagent (Applichem, Darmstadt, Germany) diluted in DMEM was added to the cells for 3 h at 37 °C. After 3 h incubation in identical conditions, MTT was removed and 200 μL of DMSO was added. Absorbance values of formazan were measured at 540 nm using a BioTek Synergy H1 microplate reader (Agilent, Santa Clara, CA, USA). All compounds were tested in triplicate. The results were statistically analyzed using the nonlinear regression by GraphPad PRISM (Version 9).

[2] = test system: HeLa cells (cervical cancer cells); experiment: MTT cell viability assay, HeLa; assay type: cell-based, human; details: for IC50: 48 h exposure, mean ± SD; for cytotoxic effect in HeLa: 48 h, concentrations up to 100 μΜ
Method: as §1, §2, §3

[3] = test system: thrombin-induced aggregation in washed rabbit platelets (WRPs); experiment: Inhibition of thrombin-induced aggregation in washed rabbit platelets; assay type: cell-based; details: for IC50: washed rabbit platelets, mean ± SD, read-out: IC50 (μM) towards Thrombin in WRPs
Method: The biological experiments of PAF-induced platelet aggregation as well as the evaluation of the inhibitory effect of its synthetic compounds were performed according to thoroughly described protocols. The inhibitory effect of the starting materials (pqx = 2-(2′-pyridyl)quinoxaline, CrCl3 × 3H2O, MnCl2 × 4H2O, FeCl2 × 4H2O, CoCl2 × 6H2O, NiCl2 × 6H2O, CuCl2 × 2H2O, ZnCl2) and of the coordination compounds 1–7, towards PAF and thrombin related biological activities (aggregation experiments) in washed rabbit platelets (WRPs) was carried out according to previously described protocols. Briefly, in order to obtain the washed rabbit platelets (WRPs), platelet-rich plasma was washed on Ficoll–Paque cushions and adjusted to […] platelets/mL of Tyrode’s buffer, pH 7.2. The dilution of PAF was prepared using pyrogen-free 0.15 M NaCl containing 2.5 mg/mL of crystallized bovine serum albumin, required for dispersion of PAF. The compounds under investigation were firstly dissolved in the appropriate solvent that is: DMSO for pqx (0.010 M), H2O for CrCl3 × 3H2O (0.016 M), H2O for MnCl2 × 4H2O (0.004 M), DMSO-EtOH (4/1, v/v)) for FeCl2 × 4H2O (0.014 M), H2O for CoCl2 × 6H2O (0.010 M), H2O for NiCl2 × 6H2O (0.010 M), H2O for CuCl2 × 2H2O (0.008 M), H2O for ZnCl2 (0.013 M), DMSO for 1 (0.017 M), DMSO for 2 (0.010 M0, DMSO for 3 (0.004 M), DMSO for 4 (0.002 M), DMSO for 5 (0.003 M), DMSO-EtOH-H2O (25/1/1, v/v)) for 6 (0.006 M), DMSO for 7 (0.002 M) and aliquots of these solutions were then added in solutions (2.5 mg BSA/mL) of saline.
The experiment on the inhibitory effect of each compound of interest against the washed rabbit platelets (WRPs) aggregation was carried out as per the already described method. The platelets were from male New Zealand white rabbits (about 20), individually housed in stainless steel cages in an air-conditioned room (19 ± 1 °C, 55 ± 5% humidity on a 12/12 h artificial light/dark cycle). Blood samples were drawn from the main ear artery. Microliters of PAF in a final concentration of about 10^–10 M were added to the cuvette of the aggregometer, and the height of the platelet aggregation was monitored. The platelet aggregation induced by PAF, or thrombin was measured before (considered as 0% inhibition) and after the addition of various concentrations of the examined sample, creating a linear curve of percentage inhibition (ranging from 0 to 100%) versus different concentrations of the sample. From this curve, the concentration of the sample that inhibited 50% PAF-induced aggregation was calculated, and this value was defined as IC50 (Inhibitory concentration for 50% Inhibition). Dithiothreitol-insensitive PAF choline phosphotransferase, lyso-PAF:acetyl-CoA acetyltransferase and PAF-acetylhydrolase activity assays were performed on the homogenates of rabbit leukocytes while the activity of lipoprotein-associated phospholipase A2 was assessed on plasma as previously described. The experiments were performed in a model 400 vs. aggregometer of Chrono-Log (Havertown, PA, USA) coupled to a Chrono-Log recorder at 37 °C with constant stirring at 1200 rpm. The separation of platelets was performed with centrifugations in a 3L-R Heraeus Labofuge (Hvanau, Germany), a 400R Heraeus Labofuge and an RC-5B Sorvall (Newtown, CT, USA) refrigerated super speed centrifuge. Bovine serum albumin (BSA), PAF and analytical solvents for the biological assays were purchased from Sigma. Standard active thrombin was purchased from Sigma, St. Lewis, MO, USA. The measurements were performed in duplicates for each sample concentration in three different WRP preparations, in order to ensure reproducibility. All experiments were also followed by appropriate control tests of the solvent used (saline solution of BSA, DMSO aliquots in a saline solution of BSA-2.5 mg BSA/mL saline- or just in saline), in WRPs. […]

Molecule	IC50 [1] [µM]	IC50 [2] [µM]	IC50 [3] [µM]	cytotoxic effect in HEK293T [1]	fold decrease of thrombin IC50 relative to the metal precursor ([3]; complex versus its metal precursor)	cytotoxic effect in HeLa [2]
CS(C)=O.[Cl][Cu][Cl].c1ccc(-c2cnc3ccccc3n2)nc1 [Complex 3, [Cu(pqx)Cl2(DMSO)]]	2.1 ± 0.52	27.2 ± 1.23	3.1 ± 0.4	–	–	–
[Cl][Zn][Cl].c1ccc(-c2cnc3ccccc3n2)nc1 [Complex 4, [Zn(pqx)Cl2]]	94.9 ± 23.2	77.8 ± 6.51	3.5 ± 0.3	negligible cytotoxic effects	~ 12 fold	–
[Co(pqx)Cl2(DMF)] [Complex 2]	67 ± 12.6	89.1 ± 7.77	8.9 ± 1.3	–	–	only slightly affected
[Fe(pqx)Cl2]2 [Complex 6]	65.8 ± 13.2	70.9 ± 2.5	0.46 ± 0.03	–	–	–
[Mn(pqx)(H2O)2Cl2]2 [Complex 5]	28.8 ± 6.16	–	14 ± 2.1	–	–	practically non-cytotoxic
[Ni(pqx)Cl2]2 [Complex 7]	25.5 ± 8.61	82.3 ± 9.49	5.6 ± 0.34	–	–	only slightly affected
mer-[Cr(pqx)Cl3(H2O)] [Complex 1]	99 ± 6.16	82.8 ± 3.12	54.6 ± 10.4	negligible cytotoxic effects	–	only slightly affected
